Legend:
[1] = tested on: oxaliplatin induced-neuropathic pain model mouse; assay: Analgesic action on oxaliplatin induced-neuropathic pain model mouse; format: in vivo; conditions: C57BL/6N mice, 1 week after oxaliplatin 0.3 mg/kg i.p., mean ± standard error
Protocol: Oxaliplatin was diluted with saline by the predetermined concentration, and administered intraperitoneally to mice (C57BL/6N, male, 8 weeks old) at 0.3 mg/kg. The test compound was dissolved in 10% captisol or 10% captisol containing 0.1% N-methyl-2-pyrrolidone. The compound was administered intravenously (0.1-10 mg/kg body weight) to the mice immediately before intraperitoneal administration of various anticancer drugs. The pain threshold was measured 1 week after oxaliplatin administration. The pain threshold was evaluated as a weighted value (gram) showing pseudo-escape reaction, when the footpad of the right hind limb was pressed using balance type pressurizing device (Ugo Basile). The values in the table show the mean±standard errors of the weighted values.

blood TNFα = assay: Effect on blood TNF-α concentration elevation by LPS stimulation; format: in vivo; conditions: female BALB/c mice; 3 mg/kg intravenously 1 h before LPS 5 mg/kg i.p.; serum 1 h after LPS; vs control group
Protocol: Various kinds of cytokines are produced in vivo accompanying inflammatory response and abnormal immunity or the like. Therefore, the action of test compound with respect to blood TNFα concentration rise was investigated using laboratory animals.
Female BALB/c mice (6 weeks old) were purchased, and, after preliminary rearing for about 1 week, the mice were divided into groups of four animals. The test compound was dissolved in 10% captisol aqueous solution and was intravenously administered to the test group at a dose of 3 mg/kg. Solvent was administered to control group in the same way. LPS (5 mg/kg) was administered intraperitoneally to the test group and the control group one hour after the administration of the test compound or solvent, and blood was sampled one hour later. The serum was separated from the obtained blood, and the TNFα[…]concentration in the serum was measured using an assay kit made by R&D Systems Inc. The inhibition rates of the test group with respect to the control group are shown in Table 3.

TLR4 = target: T1, TLR4 (Mus musculus, UniProt Q9QUK6); assay: Inhibitory effect with respect to NO production (LPS/interferon γ-stimulated RAW264.7); format: cell-based, murine; conditions: RAW264.7 cells, LPS 1.25 ng/mL and mouse interferon γ 0.2 ng/mL, nitrite ion in culture supernatant
T1 construct: endogenous in cells; host or cells: RAW264.7 (murine macrophage cell line)
T1 sequence (Q9QUK6 26-835): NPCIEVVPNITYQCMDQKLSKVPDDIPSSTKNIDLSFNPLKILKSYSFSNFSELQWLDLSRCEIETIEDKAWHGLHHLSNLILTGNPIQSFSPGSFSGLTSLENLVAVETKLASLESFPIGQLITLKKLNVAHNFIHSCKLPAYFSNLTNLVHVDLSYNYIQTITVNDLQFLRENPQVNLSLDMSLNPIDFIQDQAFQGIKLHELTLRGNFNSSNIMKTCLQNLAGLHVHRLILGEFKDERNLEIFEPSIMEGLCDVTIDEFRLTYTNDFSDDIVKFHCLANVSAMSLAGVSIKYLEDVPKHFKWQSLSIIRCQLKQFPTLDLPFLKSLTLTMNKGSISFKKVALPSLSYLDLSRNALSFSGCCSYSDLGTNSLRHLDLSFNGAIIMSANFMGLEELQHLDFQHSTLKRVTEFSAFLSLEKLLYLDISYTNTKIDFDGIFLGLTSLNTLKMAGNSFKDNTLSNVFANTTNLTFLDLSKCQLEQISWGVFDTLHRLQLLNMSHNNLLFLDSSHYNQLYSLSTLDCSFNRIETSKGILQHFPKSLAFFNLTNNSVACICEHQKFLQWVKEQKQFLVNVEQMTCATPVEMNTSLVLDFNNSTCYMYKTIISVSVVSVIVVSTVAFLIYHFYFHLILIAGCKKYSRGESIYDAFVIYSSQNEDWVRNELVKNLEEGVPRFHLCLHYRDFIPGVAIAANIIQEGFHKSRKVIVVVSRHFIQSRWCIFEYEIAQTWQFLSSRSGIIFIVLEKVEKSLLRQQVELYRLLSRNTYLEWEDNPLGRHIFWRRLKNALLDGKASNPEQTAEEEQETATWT
T1 sequence (Q9JHF9 19-160 partner): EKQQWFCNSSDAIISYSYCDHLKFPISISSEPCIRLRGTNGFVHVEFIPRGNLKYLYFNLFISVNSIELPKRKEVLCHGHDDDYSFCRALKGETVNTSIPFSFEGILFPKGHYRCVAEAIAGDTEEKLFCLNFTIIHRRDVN
Protocol: The inhibitory effect on TLR4 was determined using the inhibition rate due to the test compound with respect to NO production as a result of addition of lipopolysaccharide (LPS) using murine macrophage cell line RAW264.7. The cells were adjusted to 2×10^6 cells/mL using RPM1-1640 culture medium (phenol red free) supplemented with 10% inactivated bovine fetal serum, and were plated on 384 well plate so as to contain 6×10^4 cells/30 μL per well. Thereafter the cells were cultured at 37° C. overnight under 5% CO2/95% air. The test compound dissolved in DMSO was diluted 200 times using RPM1-1640 culture medium and adjusted so as to form a compound concentration of 500 nM. The prepared test compound 10 μL (final concentration 100 nM) was added to the cells, and LPS (Sigma) and mouse interferon γ (Wako Pure Chemicals) were added in amounts of 10 μL so as to form final concentrations of 1.25 ng/mL and 0.2 ng/mL respectively. The cells were further cultured overnight, and then the nitrite ion (stable NO metabolite) concentration in the culture supernatant was measured as an index of NO production. The nitrite ion concentration was assayed by adding 10 μL of 20 μg/mL 2,3-diamino naphthalene (DAN) dissolved in 0.2N HCl to 20 μL culture supernatant, incubating at room temperature for ten minutes, and then adding 10 μL of 0.5N NaOH, and measuring the fluorescent value at 460 nm (excitation wavelength 355 nm) using an EnVision plate reader (Perkin Elmer). The NO production inhibition rate (%) was calculated using the value without the addition of stimulating agent as control of 100% inhibition, and the value without the addition of the compound as control of 0% inhibition.

[2] = tested on: liver injury by Galactosamine/LPS stimulation; assay: Action on liver injury by Galactosamine/LPS stimulation (blood plasma ALT); format: in vivo; conditions: BALB/c mice; for ALT amount in the blood plasma: 8 hr, mean ± standard error
Protocol: The action on liver injury by Galactosamine/LPS stimulation was evaluated by elevation of blood alanine transaminase (ALT) amount as an index. Galactosamine (700 mg/kg) and LPS (5 μg/kg) were administered intraperitoneally to BALB/c mice (female, 7 weeks old, Japan Charles River). After 8 hr, the blood was collected in the presence of heparin. The obtained blood was centrifuged (4° C., 10000×rpm, 10 min), and the blood plasma was collected, and the ALT amount in the blood plasma was measured by 7180 type Hitachi automated analytical apparatus (Hitachi High-Technologies Corporation). Compound 6 was dissolved in 10% captisol solution (0.3, 1, 3 mg/kg), and the solution was administered intravenously to the mice in the tail vein 1 hr before Galactosamine/LPS administration.

For CCOC(=O)C1=CC2(CC[C@H]1S(=O)(=O)[C@H]1CCc3cccc(Cl)c31)O[C@H](CO)[C@@H](CO)O2 [Compound 6, Ethyl (2R,3R,8R)-8-(((1S)-7-chloro-2,3-dihydro-1H-inden-1-yl)sulfonyl)-2,3-bis(hydroxymethyl)-1,4-dioxaspiro[4.5]dec-6-ene-7-carboxylate], the “Pain threshold (weighted value showing pseudo-escape reaction)” value (“Pain threshold” for short) ([1]; 1 mg/kg i.v.) was 190.0 ± 46.1 gram, the “Pain threshold” value ([1]; 3 mg/kg i.v.) was 153.3 ± 46.1 gram and the “Pain threshold” value ([1]; 10 mg/kg i.v.) was 310.0 ± 45.6 gram. The “Blood TNFα inhibition rate (% inhibition)” value (blood TNFα) was 93.1 % inhibition, the “NO production inhibitory effect at 100 nM (% inhibition)” value (TLR4) was 103 % inhibition and the “ALT amount in the blood plasma” value ([2]; 0.3 mg/kg i.v. 1 hr before Galactosamine/LPS) was 570 ± 94 IU/L. The “ALT amount in the blood plasma” value ([2]; 1 mg/kg i.v. 1 hr before Galactosamine/LPS) was 361 ± 60 IU/L, the “ALT amount in the blood plasma” value ([2]; 3 mg/kg i.v. 1 hr before Galactosamine/LPS) was 104 ± 10 IU/L and the “Effect on the increase in the ALT amount in the blood plasma due to Galactosamine/LPS stimulation (in words)” value ([2]; 0.3, 1, 3 mg/kg i.v.) was “dose-dependently and significantly inhibited the increase in the ALT amount”.
